The values that follow come from patent publication US20190153024A1, “NOVEL SALTS AND POLYMORPHS OF SCY-078” (priority 2015, published 2019).

Common to all, as to type: physicochemical
Data set [1] in a line: Dynamic Vapor Sorption (DVS) water uptake. The following applies: for solid form by XRPD after DVS: after DVS experiment; for water uptake (DVS): 25° C., 80% RH. Here is the method:
Dynamic Vapor Sorption (DVS)—The term “DVS” means the procedure described in below. The relative humidity at 25° C. was calibrated against deliquescence point of LiCl, Mg(NO3)2 and KCl.
The DVS of SCY-078 salts were tested according to the above method, using a 10-20 mg sample size. The DVS was measured using a Surface Measurement Systems (SMS) DVS Intrinsic.

The nature of data set [2]: pH value of saturated SCY-078 salt solutions in water. The settings on record: saturated salt solution in H2O, room temperature; for pH 1 hr: equilibrated 1 hour; for pH 24 hrs: equilibrated 24 hours. Here is the method: To test the pH, a solution of each compound was equilibrated at room temperature using a rolling incubator (25 rpm) for 1 hour and 24 hours before measurement.

Data set [3] in a line: Chemical and physical stability of SCY-078 salts on storage (25° C./60% RH, 40° C./75% RH, 60° C.). The following applies: for physical and chemical stability: Type M 4 days, Type S 1 week. The text has this: For all compounds tested other than the trifluoroacetate salts (Type A and B) and the HCl Type I and II salts, the conditions and parameters used for measuring solubility are shown in Table 2A and for measuring stability are showing in Table 3A. The conditions and parameters used for the solubility of the trifluoroacetate salts (Type A and B) and the HCl Type I and II salts are shown in Table 2B and for stability are shown in Table 3B.

The mark [4] stands for this setting: 25° C./60% RH, open dish, 1 week.
Where [5] appears, read: 40° C./75% RH, open dish, 1 week.

On to `CC(C)[C@@H](C)[C@@]1(C)CC[C@]2(C)[C@H]3CC[C@@H]4[C@@]5(COC[C@]4(C)[C@@H](OC[C@](C)(N)C(C)(C)C)[C@H](n4ncnc4-c4ccncc4)C5)C3=CC[C@@]2(C)[C@@H]1C(=O)O.O=C(O)CC(O)(CC(=O)O)C(=O)O` [SCY-078 citrate Type A], for which, in data set [1], the “solid form by XRPD after DVS” value is “No form change”. Besides, in data set [2], the “pH 1 hr” value came out at 3.5. Besides, the “pH 24 hrs” value in data set [2] is 3.8. The “time stable when stored” value is given as “at least 1 week” in data set [3] (25° C. and 60% relative humidity); “at least 1 week” in data set [3] (40° C. and 75% relative humidity); “at least 1 week” in data set [3] (60° C.). Moreover, the “Impurity % by HPLC” value in data set [3] (setting [4]) stood at 0.09%; in data set [3] (setting [5]) it was 0.10%; in data set [3] (60° C., closed dish, 1 week) it was 0.17%; in data set [3] (Initial), 0.34%.

For the compound `CC(C)[C@@H](C)[C@@]1(C)CC[C@]2(C)[C@H]3CC[C@@H]4[C@@]5(COC[C@]4(C)[C@@H](OC[C@](C)(N)C(C)(C)C)[C@H](n4ncnc4-c4ccncc4)C5)C3=CC[C@@]2(C)[C@@H]1C(=O)O.O=C(O)CC(O)(CC(=O)O)C(=O)O` [SCY-078 citrate Type S], the “water uptake (DVS)” value in data set [1] amounted to 8.2%. For the same compound, the “solid form by XRPD after DVS” value in data set [1] is listed as “peak shifts”. Also, the “physical and chemical stability” value was “physically and chemically stable” in data set [3] (closed dish 60° C.); “Diffraction peak shifts were observed” in data set [3] (open dish 25° C., 60% RH); “Diffraction peak shifts were observed” in data set [3] (open dish 40° C., 75% RH).

As for `CC(C)[C@@H](C)[C@@]1(C)CC[C@]2(C)[C@H]3CC[C@@H]4[C@@]5(COC[C@]4(C)[C@@H](OC[C@](C)(N)C(C)(C)C)[C@H](n4ncnc4-c4ccncc4)C5)C3=CC[C@@]2(C)[C@@H]1C(=O)O.O=C(O)/C=C/C(=O)O` [SCY-078 fumarate Type A], the “water uptake (DVS)” value in data set [1] stood at 2.5%. Moreover, the “solid form by XRPD after DVS” value in data set [1] is “no form change”. For the same compound, the “pH 1 hr” value in data set [2] is listed as 4.4. For the same compound, the “pH 24 hrs” value in data set [2] amounted to 3.8. Further, the “Impurity % by HPLC” value in data set [3] (setting [4]) stood at 0.09%; in data set [3] (setting [5]) it was 0.10%; in data set [3] (60° C., closed dish, 1 week) it was 0.10%; in data set [3] (Initial), 0.12%.

Turning to `CC(C)[C@@H](C)[C@@]1(C)CC[C@]2(C)[C@H]3CC[C@@H]4[C@@]5(COC[C@]4(C)[C@@H](OC[C@](C)(N)C(C)(C)C)[C@H](n4ncnc4-c4ccncc4)C5)C3=CC[C@@]2(C)[C@@H]1C(=O)O.O=C(O)CNC(=O)c1ccccc1.O=C(O)CNC(=O)c1ccccc1` [SCY-078 hippurate Type B], in data set [1], the “water uptake (DVS)” value is on record as roughly 3.5% and the “solid form by XRPD after DVS” value is on record as “converted to SCY-078 hippurate Type A”. In data set [2], the “pH 1 hr” value came out at 4.6 and the “pH 24 hrs” value is 4.2.

For the compound `CC(C)[C@@H](C)[C@@]1(C)CC[C@]2(C)[C@H]3CC[C@@H]4[C@@]5(COC[C@]4(C)[C@@H](OC[C@](C)(N)C(C)(C)C)[C@H](n4ncnc4-c4ccncc4)C5)C3=CC[C@@]2(C)[C@@H]1C(=O)O.CS(=O)(=O)O` [SCY-078 mesylate Type A], in data set [1], the “water uptake (DVS)” value was 11.5% and the “solid form by XRPD after DVS” value is listed as “no form change”. Also, in data set [2], the “pH 1 hr” value turned out to be 3.4 and the “pH 24 hrs” value came out at 3.6.

As for `CC(C)[C@@H](C)[C@@]1(C)CC[C@]2(C)[C@H]3CC[C@@H]4[C@@]5(COC[C@]4(C)[C@@H](OC[C@](C)(N)C(C)(C)C)[C@H](n4ncnc4-c4ccncc4)C5)C3=CC[C@@]2(C)[C@@H]1C(=O)O.O=P(O)(O)O` [SCY-078 phosphate Type A], in data set [1], the “water uptake (DVS)” value stood at 12.5% and the “solid form by XRPD after DVS” value is “no form change”. Moreover, in data set [2], the “pH 1 hr” value is listed as 3.4 and the “pH 24 hrs” value is on record as 3.6.
